Reference: patent US10364471B2, “Tumor suppressor REC8 as a biomarker for gastric cancer” (The Chinese University of Hong Kong, priority 2017, dated 2019)

System: REC8 mRNA expression in gastric cancer cell lines
Test: Demethylation treatment with 5-Aza, REC8 mRNA by RT-PCR
Type: cell-based, human
Conditions: 2 uM 5-Aza for 5 days
Description: Gastric cancer cells were treated with 2 uM DNA demethylation agent 5-Aza-2′-deoxycytidine (5-Aza) (Sigma-Aldrich, St Louis, Mo.) for 5 days and medium was refreshed every day.
Total RNA was extracted from cell pellets or tissues using Qiazol® reagent (Qiagen, Valencia, Calif.), and cDNA was synthesized using Transcriptor Reverse Transcriptase (Roche, Indianapolis, Ind.). RT-PCR was performed using the GoTaq® DNA polymerase (Promega). qPCR was performed using SYBR Green master mixture on HT7900 system (Applied Biosystems, Foster City, Calif.). Primers used are listed in Table 5 and also published previously.^7

Q: How did the “REC8 mRNA expression” value (AGS with REC8 expression/unmethylated) turn out when `Nc1ncn([C@H]2C[C@H](O)[C@@H](CO)O2)c(=O)n1` [5-Aza, 5-Aza-2′-deoxycytidine] was run?
A: had no effect

Q: What about the “REC8 mRNA expression” value (cell lines with REC8 down-regulated/methylated (BGC823, SNU719, NCI-N87, MKN28, AGS-EBV)) of the same molecule?
A: restored
